What was measured:
[1] = tested on: NIH3T3^MEN2A(C634R) cells; experiment: Antiproliferative assay (Coulter Counter), NIH3T3 MEN2A(C634R) versus parental NIH3T3; assay type: cell-based, murine; settings: 72 h, dose-response curves
Experimental: FIG. 1. Effects of Cpd 1 on NIH3T3^MEN2A(C634R) transfectants expressing exogenous RET/MEN2A(C634R). […] Cells were exposed to 6 μM Cpd1 for 24 h and then photographed under a phase-contrast microscope (original magnification ×100). B) Antiproliferative effect. NIH3T3^MEN2A(C634R) cells and the parental NIH3T3 cells were treated with increasing concentrations of the drug for 72 h and then counted with a Coulter Counter. […] C) Inhibition of Ret/MEN2A(C634R) autophosphorylation and expression. Cells were treated with solvent (−) or 10 μM Cpd1 (+), for the indicated times. Whole cell-lysates were prepared and subjected to SDS-PAGE and Western blotting with anti-pTyr antibody. After stripping, the filter was reblotted with anti-Ret antibody. Arrows indicate the partial and fully glycosilated forms of the Ret/MEN2A receptor.
Cells were trypsinized after 3 days (NIH3T3 and NIH3T3 M12A cells) or 7 days (MTC cells) of treatment with Cpd1 and counted by a Coulter Counter (Coulter Electronics, Luton U.K.). The concentrations able to inhibit cell proliferation by 50% (IC50) were calculated from the dose-response curves. Each experiment was performed in duplicate

NIH3T3^KITΔ559 cells = experiment: Reversion of transformed morphologic phenotype of NIH3T3 transfectants expressing KIT (Δ559); assay type: cell-based, mouse; settings: 20 μM, 24 h, phase-contrast microscope
Experimental: (§1) FIG. 7. Effects of Cpd1 on cell lines expressing constitutively activated forms of Kit. […] Cells were treated with 20 μM Cpd1 and photographed 24 h later under a phase-contrast microscope (original magnification X 100). B): Inhibition of Kit (Δ559) autophosphorylation and expression in NIH3T3 transfectants. Cells were treated with Cpd 1 at the indicated concentrations, for 72 h. Cell lysates were immunoprecipitated with anti-Kit antibody and subjected to Western blotting with anti-p-Tyr or anti-Kit antibodies. C): Inhibition of expression and autocrine loop-activated autophosphorylation of c-Kit in the SCLC cell line N592. Cells were treated with Cpd 1 at the indicated concentrations, for 24 h. Whole cell lysates were subjected to Western blotting with anti-Kit antibody or with an antibody specifically recognizing the tyrosine phosphorylated/activated Kit (p-Kit).
(§2) The following human medullary thyroid carcinoma (MTC) cell lines were used in this study. The TT cell line derived from a MEN2A-associated MTC characterized by expression of the RET oncogene carrying the mutation C634W. The MZ-CRC-1 cell line derived from MEN2B-associated MTC characterized by expression of the RET oncogene carrying the mutation M918T. […]

Kit (Δ559) = molecular target: T1, Kit (Δ559) (Homo sapiens, UniProt P10721, DEL559-559); experiment: Kit (Δ559) autophosphorylation and expression in NIH3T3 transfectants; assay type: cell-based; settings: 72 h
T1 construct: expressed in transfected cells; host or cells: NIH3T3 (mouse fibroblasts)
Experimental: as §1, §2
For immunoprecipitation experiments, cells were treated with Cpd1 or solvent for the indicated times. […] Protein concentration was determined by the BCA reagent (Pierce). […]

c-Kit = molecular target: T2, c-Kit (Homo sapiens, UniProt P10721); experiment: c-Kit autophosphorylation and expression in SCLC cell line N592; assay type: cell-based; settings: N592 cells, 24 h
T2 construct: endogenous in cells; host or cells: N592 (human small cell lung carcinoma)
Experimental: as §1, with “(p-Kit). […]” for “(p-Kit).”
For whole-cell extract preparation, cells were lysed in sodium dodecyl sulfate (SDS) sample buffer (62.5 mM Tris-HCl (pH 6.8), 2% SDS) with 1 mM PMSF, 10 μg/ml pepstatin, 12.5 μg/ml leupeptin, 100 KIU aprotinin, 1 mM sodium orthovanadate, 1 mM sodium molybdate. Protein concentration was determined in appropriately diluted aliquots by the bicinchionic acid (BCA) method (Pierce, Rockford, Ill.), then samples were adjusted to a final concentration of 10% glycerol, 5% β-mercaptoethanol, 0.001% bromophenol blue. […]

T1 sequence (P10721 with tags, fused parts or gaps DEL559-559): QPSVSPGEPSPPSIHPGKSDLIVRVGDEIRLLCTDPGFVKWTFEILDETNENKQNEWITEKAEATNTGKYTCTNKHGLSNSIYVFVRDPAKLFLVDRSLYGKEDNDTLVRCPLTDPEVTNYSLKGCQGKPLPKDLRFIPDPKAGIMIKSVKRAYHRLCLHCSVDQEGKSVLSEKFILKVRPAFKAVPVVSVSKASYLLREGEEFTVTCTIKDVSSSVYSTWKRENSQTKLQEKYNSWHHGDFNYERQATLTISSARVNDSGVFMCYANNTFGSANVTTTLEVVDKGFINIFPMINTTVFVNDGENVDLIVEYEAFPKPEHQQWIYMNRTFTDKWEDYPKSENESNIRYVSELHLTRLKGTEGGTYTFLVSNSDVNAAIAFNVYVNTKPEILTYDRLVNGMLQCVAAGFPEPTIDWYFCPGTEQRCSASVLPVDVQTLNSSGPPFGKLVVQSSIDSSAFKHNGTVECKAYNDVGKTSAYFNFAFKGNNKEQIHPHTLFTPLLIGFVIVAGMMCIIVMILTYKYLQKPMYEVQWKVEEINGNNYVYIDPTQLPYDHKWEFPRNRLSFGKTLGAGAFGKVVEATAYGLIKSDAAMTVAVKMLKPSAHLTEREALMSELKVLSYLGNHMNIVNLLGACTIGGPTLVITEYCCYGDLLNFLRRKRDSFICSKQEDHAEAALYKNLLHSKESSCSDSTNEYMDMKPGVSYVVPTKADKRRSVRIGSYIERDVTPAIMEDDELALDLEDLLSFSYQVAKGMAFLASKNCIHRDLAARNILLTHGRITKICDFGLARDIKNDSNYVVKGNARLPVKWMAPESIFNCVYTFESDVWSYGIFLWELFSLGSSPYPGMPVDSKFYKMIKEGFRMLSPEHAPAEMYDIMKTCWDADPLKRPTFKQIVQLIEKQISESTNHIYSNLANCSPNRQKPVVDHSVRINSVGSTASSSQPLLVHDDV
T2 sequence (P10721 26-976): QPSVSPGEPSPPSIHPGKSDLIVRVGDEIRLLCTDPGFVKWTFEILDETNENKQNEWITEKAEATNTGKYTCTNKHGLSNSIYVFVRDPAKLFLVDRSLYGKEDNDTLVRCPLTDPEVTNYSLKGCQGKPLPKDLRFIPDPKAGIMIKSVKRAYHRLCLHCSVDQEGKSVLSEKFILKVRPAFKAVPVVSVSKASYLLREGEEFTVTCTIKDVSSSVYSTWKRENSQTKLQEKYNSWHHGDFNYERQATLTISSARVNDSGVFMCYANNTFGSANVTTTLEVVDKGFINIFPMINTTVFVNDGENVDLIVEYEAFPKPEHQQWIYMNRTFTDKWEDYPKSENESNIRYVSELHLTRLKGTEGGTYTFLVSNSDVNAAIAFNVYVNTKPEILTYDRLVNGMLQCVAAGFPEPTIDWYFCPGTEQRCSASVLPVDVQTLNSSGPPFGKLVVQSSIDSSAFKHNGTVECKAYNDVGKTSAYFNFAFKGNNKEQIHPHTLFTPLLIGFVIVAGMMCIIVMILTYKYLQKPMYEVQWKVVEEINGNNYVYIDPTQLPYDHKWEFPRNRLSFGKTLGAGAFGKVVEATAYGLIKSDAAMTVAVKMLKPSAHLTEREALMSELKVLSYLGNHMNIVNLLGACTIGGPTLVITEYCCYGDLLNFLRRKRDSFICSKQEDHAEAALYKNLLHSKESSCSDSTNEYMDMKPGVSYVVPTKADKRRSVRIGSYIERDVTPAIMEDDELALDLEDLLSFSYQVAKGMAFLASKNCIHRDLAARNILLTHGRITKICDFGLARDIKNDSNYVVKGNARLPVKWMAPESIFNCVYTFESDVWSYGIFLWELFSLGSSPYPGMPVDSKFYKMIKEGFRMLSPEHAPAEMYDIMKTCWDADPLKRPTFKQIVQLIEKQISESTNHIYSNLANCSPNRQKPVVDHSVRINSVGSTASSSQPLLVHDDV

COc1cc2c(cc1OC)/C(=C\c1ccc(O)cc1)C(=O)N2 [Cpd 1, (E)-1,3-dihydro-5,6-dimethoxy-3-[(4-hydroxyphenyl)methylene]-2H-indol-2-one]
Antiproliferative effect, sensitivity relative to parental NIH3T3 cells [1]: higher sensitivity
Transformed morphologic phenotype (NIH3T3^KITΔ559 cells): Reversion of the transformed morphologic phenotype
Kit (Δ559) expression (Kit (Δ559)): dose-dependent drug-induced inhibition
Kit (Δ559) tyrosine phosphorylation (Kit (Δ559)): dose-dependent drug-induced inhibition
c-Kit autocrine loop-activated tyrosine phosphorylation (p-Kit) (c-Kit): dose-dependent drug-induced inhibition
c-Kit expression (c-Kit): dose-dependent drug-induced inhibition
